The source of these data is US20110230428A1, “CERTAIN KYNURENINE-3-MONOOXYGENASE INHIBITORS, PHARMACEUTICAL COMPOSITIONS, AND METHODS OF USE THEREOF” (priority 2008, published 2011).

Structures are written as SMILES. Structures can show the parent of a compound that is named as a salt.

The target in this test is T1, KMO mouse enzyme (Mus musculus, UniProt Q91WN4).
T1 construct: KMO enzyme prepared at Evotec from mouse liver (4-6 weeks old) via mitochondria isolation; from tissue; host or cells: mouse liver (4-6 weeks old), isolated mitochondria
T1 sequence (Q91WN4 whole entry): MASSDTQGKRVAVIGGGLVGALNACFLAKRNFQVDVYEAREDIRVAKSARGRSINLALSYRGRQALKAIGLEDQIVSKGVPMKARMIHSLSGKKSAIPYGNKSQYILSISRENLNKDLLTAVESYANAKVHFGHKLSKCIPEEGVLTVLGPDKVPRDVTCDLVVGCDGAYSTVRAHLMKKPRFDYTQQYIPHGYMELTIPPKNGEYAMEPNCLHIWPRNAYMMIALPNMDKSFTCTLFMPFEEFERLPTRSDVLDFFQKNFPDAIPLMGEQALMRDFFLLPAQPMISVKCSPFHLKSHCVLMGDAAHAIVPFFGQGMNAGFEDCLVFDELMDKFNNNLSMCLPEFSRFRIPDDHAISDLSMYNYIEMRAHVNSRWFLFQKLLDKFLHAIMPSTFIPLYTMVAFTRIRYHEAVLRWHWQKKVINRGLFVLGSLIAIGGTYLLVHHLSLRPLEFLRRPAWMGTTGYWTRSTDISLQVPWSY
Briefly: KMO mouse enzyme assay: L-Kynurenine hydroxylation to 3OH-KYN by LC/MS. In kind it is biochemical. To be noted: compound at 10 μM; KMO from mouse liver mitochondria; read-out: INH.Mouse @ 10 μM. As to the method: A method of monitoring L-Kynurenine (KYN) hydroxylation to form 3-Hydroxy-Kynurenine (3OH-KYN) by LC/MS is described. Product is quantified by multiple reaction monitoring (MRM method).
• Compound: Stock concentrations: 10 mM in 100% DMSO • Enzyme: KMO enzyme prepared at Evotec from mouse liver (4-6 weeks old) via mitochondria isolation as described in the literature • Substrate: L-Kynurenine (Sigma: Cat# K3750, stock concentration: 10 mM in 100 mM potassium phosphate buffer, pH 7.4)
• Buffer: 100 mM potassium phosphate, pH 7.4, 200 μM NADPH, 0.4 U/ml G6P-DH (Glucose 6-phosphate Dehydrogenase), 3 mM G6P (D-Glucose 6-phosphate) • Assay Volume: 40 μl • Plate Format: 384 well plate, transparent (Matrix) • Read-Out: product (3OH-KYN) quantification using product specific MRM • Reader: LC/MS/MS
• prepare serial dilution (factor 3) of compound in 100% DMSO (top concentration=10 mM, 100% DMSO) • [8 points: 10 mM; 3.33 mM; 1.11 mM; 0.37 mM; 0.12 mM; 0.04 mM; 0.0137 mM; 0.0045 mM, 0.0015 mM] • prepare […] solution of each compound concentration (top concentration 300 μM, 3% DMSO) in assay buffer • [concentrations: 300 μM; 100 μM; 33.3 μM; 11.1 μM; 3.70 μM; 1.23 μM; 0.41 μM; 0.137 μM] • prepare substrate (10 mM) at concentration of 1 mM in assay buffer • assay mix: 4 μl compound/well of each concentration+24 μl assaybuffer/well+8 μl KMO mouse enzyme+4 μl 1 mM substrate (final concentration=100 μM) • [final compound top concentration: 30 μM; 0.3% DMSO] • [final compound bottom concentration: 0.0137 μM; 0.3% DMSO] • positive control: 4 μl 50 μM FCE28833 in assay buffer, 0.5% DMSO [final assay concentration=5 μM]+24 μl assaybuffer/well+8 μl KMO mouse enzyme+4 μl 1 mM substrate [final concentration=100 μM] • negative control: 28 μl assay buffer/well+8 μl KMO mouse enzyme+4 μl 1 mM substrate [final concentration=100 μM] • incubate 40 min at RT • add 40 μl/well 10% trichloro acetic acid in water to stop the assay and precipitate protein • centrifuge plate for 3 min at 4000 rpm • product detection by LC/MS (injection of 20 μl/well, 2 fold overfill of the 10 μl sample loop) Data analysis: IC50's are calculated using automated fitting algorithm (A+Analysis).
Using procedures similar to those described herein, the following compounds were assayed for activity.
For the compound `CON=C(CCCC(=O)OC)c1ccc(Cl)c(Cl)c1` [5-(3,4-Dichloro-phenyl)-5-methoxyimino-pentanoic acid methyl ester], the inhibition at 10 µM turned out to be 61.2%. `COC(=O)CC/C(=N\OCc1ccccc1)c1ccc(Cl)c(Cl)c1` [4-Benzyloxyimino-4-(3,4-dichloro-phenyl)-butyric acid methyl ester]: the inhibition at 10 µM was determined as 66%. As for `CO/N=C(\CCC(=O)NC(C)C)c1ccc(Cl)c(Cl)c1` [4-(3,4-Dichloro-phenyl)-N-isopropyl-4-methoxyimino-butyramide], the figure is 94.3%. Turning to `CON=C(CCC(=O)Nc1cccnc1)c1ccc(Cl)c(Cl)c1` [4-(3,4-Dichloro-phenyl)-4-methoxyimino-N-pyridin-3-yl-butyramide], the inhibition at 10 µM stood at 103%.

As for `CO/N=C(\CCC(=O)Nc1ccccn1)c1ccc(Cl)c(Cl)c1` [4-(3,4-Dichloro-phenyl)-4-methoxyimino-N-pyridin-2-yl-butyramide], the inhibition at 10 µM was 104%.

As to `CON=C(CCC(=O)NCc1cccnc1)c1ccc(Cl)c(Cl)c1` [4-(3,4-Dichloro-phenyl)-4-methoxyimino-N-pyridin-3-ylmethyl-butyramide], the inhibition at 10 µM is 77.1%. `CON=C(c1ccc(Cl)c(Cl)c1)C1C[C@@H]1C(=O)OC` (stereo partly drawn) [(1S,2S)-trans-2-[(3,4-Dichloro-phenyl)-methoxyimino-methyl]-cyclopropanecarboxylic acid methyl ester]: the inhibition at 10 µM was 61%. On to `CO/N=C(\CCC(=O)OC1CCCC1)c1ccc(Cl)c(Cl)c1` [4-(3,4-Dichloro-phenyl)-4-methoxyimino-butyric acid cyclopentyl ester], for which the inhibition at 10 µM worked out at 102%. Under `CON=C(CCC(C)=O)c1ccc(Cl)c(Cl)c1` [1-(3,4-Dichloro-phenyl)-pentane-1,4-dione 1-(O-methyl-oxime)] stands 77.7%. For the compound `CO/N=C(\CCC(=O)Nc1cnn(C)c1)c1ccc(Cl)c(Cl)c1` [4-(3,4-Dichloro-phenyl)-4-methoxyimino-N-(1-methyl-1H-pyrazol-4-yl)-butyramide], the inhibition at 10 µM came out at 90.5%. In the case of `CON=C(CCC(=O)Nc1cnccc1C)c1ccc(Cl)c(Cl)c1` [4-(3,4-Dichloro-phenyl)-4-methoxyimino-N-(4-methyl-pyridin-3-yl)-butyramide], the inhibition at 10 µM is 93.9%. As for `CO/N=C(\CCC(=O)NC1CCN(C(=O)OC(C)(C)C)CC1)c1ccc(Cl)c(Cl)c1` [4-[4-(3,4-Dichloro-phenyl)-4-methoxyimino-butyrylamino]-piperidine-1-carboxylic acid tert-butyl ester], the inhibition at 10 µM was 75.2%. As to `CNC(=O)CC/C(=N\OC)c1ccc(Cl)c(Cl)c1` [4-(3,4-Dichloro-phenyl)-4-methoxyimino-N-methyl-butyramide], the inhibition at 10 µM was determined as 93.7%. In the case of `CON=C(CCC(=O)Nc1ncccn1)c1ccc(Cl)c(Cl)c1` [4-(3,4-Dichloro-phenyl)-4-methoxyimino-N-pyrimidin-2-yl-butyramide], the inhibition at 10 µM was 101%. As for `CON=C(CCC(=O)Nc1ccccc1)c1ccc(Cl)c(Cl)c1` [4-(3,4-Dichloro-phenyl)-4-methoxyimino-N-phenyl-butyramide], the inhibition at 10 µM was 103%. In the case of `NCCON=C(CCC(=O)O)c1ccc(Cl)c(Cl)c1` [4-[2-Amino-ethoxyimino]-4-(3,4-dichloro-phenyl)-butyric acid trifluoroacetic acid salt], the inhibition at 10 µM came to 49.5%. As for `CON=C(CCC(=O)Nc1cnccn1)c1ccc(Cl)c(Cl)c1` [4-(3,4-Dichloro-phenyl)-4-methoxyimino-N-pyrazin-2-yl-butyramide], the figure is 98%; as for `CON=C(CCC(=O)OC[C@H](O)[C@H]1OC(=O)C(O)=C1O)c1ccc(Cl)c(Cl)c1` [4-(3,4-Dichloro-phenyl)-4-methoxyimino-butyric acid (S)-2-((R)-3,4-dihydroxy-5-oxo-2,5-dihydro-furan-2-yl)-2-hydroxy-ethyl ester], 102%; as for `CON=C(CCC(=O)N(C)OC)c1ccc(Cl)c(Cl)c1` [4-(3,4-Dichloro-phenyl)-N-methoxy-4-methoxyimino-N-methyl-butyramide], 102%. As for `CCO/N=C(\CCC(=O)OC)c1ccc(Cl)c(Cl)c1` [4-(3,4-Dichloro-phenyl)-4-ethoxyimino-butyric acid methyl ester], the figure is 107%; as for `O=C(O)CC/C(=N\OCC1CC1)c1ccc(Cl)c(Cl)c1` [4-Cyclopropylmethoxyimino-4-(3,4-dichloro-phenyl)-butyric acid], 99.6%; as for `CO/N=C(\CCC(=O)OC1CCOCC1)c1ccc(Cl)c(Cl)c1` [4-(3,4-Dichloro-phenyl)-4-methoxyimino-butyric acid tetrahydro-pyran-4-yl ester], 102%. `CON=C(CCC(=O)Nc1ccc(C)nc1C)c1ccc(Cl)c(Cl)c1` [4-(3,4-Dichloro-phenyl)-N-(2,6-dimethyl-pyridin-3-yl)-4-methoxyimino-butyramide]: the inhibition at 10 µM came out at 93%. With `COC(=O)CCC(=NO)c1ccc(Cl)c(Cl)c1` [4-(3,4-Dichloro-phenyl)-4-hydroxyimino-butyric acid methyl ester], the inhibition at 10 µM came out at 99.4%.

Consider `CON=C(CCC#N)c1ccc(Cl)c(Cl)c1` [4-(3,4-Dichloro-phenyl)-4-methoxyimino-butyronitrile], for which the inhibition at 10 µM is 74.6%. Under `CON=C(CCCC#N)c1ccc(Cl)c(Cl)c1` [5-(3,4-Dichloro-phenyl)-5-methoxyimino-pentanenitrile] stands 71.5%; under `CO/N=C(\CCC(=O)NC1CC1)c1ccc(Cl)c(Cl)c1` [N-Cyclopropyl-4-(3,4-dichloro-phenyl)-4-methoxyimino-butyramide], 100%. Turning to `O=C(O)CC/C(=N\OCc1ccccc1)c1ccc(Cl)c(Cl)c1` [4-Benzyloxyimino-4-(3,4-dichloro-phenyl)-butyric acid], the inhibition at 10 µM came out at 61.9%. As for `CON=C(CCC(=O)N1CCC(C)CC1)c1ccc(Cl)c(Cl)c1` [1-(3,4-Dichloro-phenyl)-4-(4-methyl-piperidin-1-yl)-butane-1,4-dione 1-(O-methyl-oxime)], the figure is 57.3%; as for `CON=C(CCC(=O)NCCN1CCOCC1)c1ccc(Cl)c(Cl)c1` [4-(3,4-Dichloro-phenyl)-4-methoxyimino-N-(2-morpholin-4-yl-ethyl)-butyramide], 54.6%; as for `CO/N=C(\CCC(=O)O)c1cc(Cl)cc(Cl)c1` [4-(3,5-Dichloro-phenyl)-4-methoxyimino-butyric acid], 98.7%. Take `CON=C(c1ccc(Cl)c(Cl)c1)[C@H]1C[C@@H]1C(=O)O` [(1S,2S)-trans-2-[(3,4-Dichloro-phenyl)-methoxyimino-methyl]-cyclopropanecarboxylic acid]: the inhibition at 10 µM stood at 81.2%. As for `CON=C(CCC(=O)NCCN(C)C)c1ccc(Cl)c(Cl)c1` [{2-[4-(3,4-Dichloro-phenyl)-4-methoxyimino-butyrylamino]-ethyl}-dimethyl-ammonium trifluoroacetate], the figure is 68%; as for `CON=C(CCc1noc(C)n1)c1ccc(Cl)c(Cl)c1` (single isomer, unassigned) [1-(3,4-Dichloro-phenyl)-3-(5-methyl-[1,2,4]oxadiazol-3-yl)-propan-1-one O-methyl-oxime], 87.2%; as for `CON=C(CCC(N)=O)c1ccc(Cl)c(Cl)c1` [4-(3,4-Dichloro-phenyl)-4-methoxyimino-butyramide], 94.9%. For `CO/N=C(\CCC(=O)Oc1cccnc1)c1ccc(Cl)c(Cl)c1` [4-(3,4-Dichloro-phenyl)-4-methoxyimino-butyric acid pyridin-3-yl ester], the inhibition at 10 µM was found to be 105%. With `CC(C)(C)OC(=O)NCCON=C(CCC(=O)O)c1ccc(Cl)c(Cl)c1` [4-[2-tert-Butoxycarbonylamino-ethoxyimino]-4-(3,4-dichloro-phenyl)-butyric acid], the inhibition at 10 µM was 61.9%.

Consider `CON=C(CCC(=O)Nc1ccc(F)nc1)c1ccc(Cl)c(Cl)c1` [4-(3,4-Dichloro-phenyl)-N-(6-fluoro-pyridin-3-yl)-4-methoxyimino-butyramide], for which the inhibition at 10 µM was 91.7%.
